The results in this text go back to US10519152B2, “Compounds and their use in treating cancer” (AstraZeneca AB, priority 2017, dated 2019).

In the test the target is T1, Estrogen Receptor (ERα) in MCF-7 human ductal carcinoma breast cell line (Homo sapiens, UniProt P03372).
T1 construct: endogenous in cells; host or cells: MCF-7
T1 sequence (P03372 1-595): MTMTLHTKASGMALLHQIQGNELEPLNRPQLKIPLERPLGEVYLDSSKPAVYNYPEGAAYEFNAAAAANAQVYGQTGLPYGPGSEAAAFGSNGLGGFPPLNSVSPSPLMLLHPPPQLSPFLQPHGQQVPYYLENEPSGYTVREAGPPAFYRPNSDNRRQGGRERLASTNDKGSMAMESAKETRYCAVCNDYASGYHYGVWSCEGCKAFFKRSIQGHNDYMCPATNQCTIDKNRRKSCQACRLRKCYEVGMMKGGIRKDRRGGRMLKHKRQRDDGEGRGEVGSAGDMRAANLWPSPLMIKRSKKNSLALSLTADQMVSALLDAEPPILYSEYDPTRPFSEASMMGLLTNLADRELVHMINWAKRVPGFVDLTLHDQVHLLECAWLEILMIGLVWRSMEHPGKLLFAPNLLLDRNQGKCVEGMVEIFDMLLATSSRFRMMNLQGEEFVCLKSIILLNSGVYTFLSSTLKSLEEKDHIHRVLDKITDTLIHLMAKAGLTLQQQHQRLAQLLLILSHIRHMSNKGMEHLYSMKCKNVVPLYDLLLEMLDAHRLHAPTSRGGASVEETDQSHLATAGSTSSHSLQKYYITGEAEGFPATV
Nature of the test: MCF-7 ER degradation assay (cell based immuno-fluorescence). The settings on record: MCF-7 cells; for ER degradation ≥ 90% at 0.3 μM: ER degradation by fulvestrant at 0.3 μM is defined as 100%; for DC50: 18-22 hours incubation, 50% reduction of ERα expression, single experiment or average of two or more, read-out: MCF-7 ER degradation IC50. An outline of the steps: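 MCF-7 human ductal carcinoma breast cells were seeded at 3.75×10^4 cells per mL (40 μL per well) in 384 well plates with phenol red free DMEM containing 2 mM L-Glutamine and 5% (v/v) Charcoal/Dextran treated foetal calf serum. After overnight culture, compounds were acoustically dispensed, incubated 18-22 hours, then cells were formaldehyde-fixed and immunostained for ERα.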

Regarding `Cc1ncsc1-c1ccc([C@H](C)NC(=O)[C@@H]2C[C@@H](O)CN2C(=O)[C@@H](NC(=O)COCCOCCCCOc2cc(F)c([C@@H]3c4[nH]c5ccccc5c4C[C@@H](C)N3CC(C)(C)F)c(F)c2)C(C)(C)C)cc1` [Example 153, (2S,4R)-1-((S)-2-(2-(2-(4-(3,5-Difluoro-4-((1R,3R)-2-(2-fluoro-2-methylpropyl)-3-methyl-2,3,4,9-tetrahydro-1H-pyrido[3,4-b]indol-1-yl)phenoxy)butoxy)ethoxy)acetamido)-3,3-dimethylbutanoyl)-4-hydroxy-N—((S)-1-(4-(4-methylthiazol-5-yl)phenyl)ethyl)pyrrolidine-2-carboxamide], the “ER degradation ≥ 90% at 0.3 μM” value is “••” and the DC50 worked out at 0.4 nM.

In the case of `Cc1ncsc1-c1ccc([C@H](C)NC(=O)[C@@H]2C[C@@H](O)CN2C(=O)[C@@H](NC(=O)COCCCCOCCCOc2cc(F)c([C@@H]3c4[nH]c5ccccc5c4C[C@@H](C)N3CC(C)(C)F)c(F)c2)C(C)(C)C)cc1` [Example 154, (2S,4R)-1-((S)-2-(2-(4-(3-(3,5-Difluoro-4-((1R,3R)-2-(2-fluoro-2-methylpropyl)-3-methyl-2,3,4,9-tetrahydro-1H-pyrido[3,4-b]indol-1-yl)phenoxy)propoxy)butoxy)acetamido)-3,3-dimethylbutanoyl)-4-hydroxy-N—((S)-1-(4-(4-methylthiazol-5-yl)phenyl)ethyl)pyrrolidine-2-carboxamide], the “ER degradation ≥ 90% at 0.3 μM” value is given as “•” and the DC50 turned out to be 0.7 nM.

Consider `Cc1ncsc1-c1ccc(CNC(=O)[C@@H]2C[C@@H](O)CN2C(=O)[C@@H](NC(=O)COCCCC2CN(CCOc3cc(F)c([C@@H]4c5[nH]c6ccccc6c5C[C@@H](C)N4CC(C)(C)F)c(F)c3)C2)C(C)(C)C)cc1` [Example 47, (2S,4R)-1-((S)-2-(2-(3-(1-(2-(3,5-difluoro-4-((1R,3R)-2-(2-fluoro-2-methylpropyl)-3-methyl-2,3,4,9-tetrahydro-1H-pyrido[3,4-b]indol-1-yl)phenoxy)ethyl)azetidin-3-yl)propoxy)acetamido)-3,3-dimethylbutanoyl)-4-hydroxy-N-(4-(4-methylthiazol-5-yl)benzyl)pyrrolidine-2-carboxamide], for which the “ER degradation ≥ 90% at 0.3 μM” value is “•” and the DC50 came out at 0.6 nM.

As to `Cc1ncsc1-c1ccc(CNC(=O)[C@@H]2C[C@@H](O)CN2C(=O)[C@@H](NC(=O)COCCOCCOCCOCCOc2cc(F)c([C@@H]3c4[nH]c5ccccc5c4C[C@@H](C)N3CC(C)(C)F)c(F)c2)C(C)(C)C)cc1` [Example 37, (2S,4R)-1-((S)-2-(tert-Butyl)-17-(3,5-difluoro-4-((1R,3R)-2-(2-fluoro-2-methylpropyl)-3-methyl-2,3,4,9-tetrahydro-1H-pyrido[3,4-b]indol-1-yl)phenoxy)-4-oxo-6,9,12,15-tetraoxa-3-azaheptadecanoyl)-4-hydroxy-N-(4-(4-methylthiazol-5-yl)benzyl)pyrrolidine-2-carboxamide], the “ER degradation ≥ 90% at 0.3 μM” value was “••” and the DC50 turned out to be 3 nM.

`Cc1ncsc1-c1ccc([C@@H](CN(C)C)NC(=O)[C@@H]2C[C@@H](O)CN2C(=O)[C@@H](NC(=O)COCCOCCOCCOc2cc(F)c([C@@H]3c4[nH]c5ccccc5c4C[C@@H](C)N3CC(C)(C)F)c(F)c2)C(C)(C)C)cc1` [Example 107, (2S,4R)-1-[(2S)-2-[[2-[2-[2-[2-[3,5-Difluoro-4-[(1R,3R)-2-(2-fluoro-2-methyl-propyl)-3-methyl-1,3,4,9-tetrahydropyrido[3,4-b]indol-1-yl]phenoxy]ethoxy]ethoxy]ethoxy]acetyl]amino]-3,3-dimethyl-butanoyl]-N-[(1S)-2-(dimethylamino)-1-[4-(4-methylthiazol-5-yl)phenyl]ethyl]-4-hydroxy-pyrrolidine-2-carboxamide]: the “ER degradation ≥ 90% at 0.3 μM” value is “••” and the DC50 was 1 nM.
